Non-standard residues stand in square brackets, D forms with d. Residues, ends and D or L forms follow the SMILES beside them. Dip = N[C@H](C(=O)O)C(c1ccccc1)c1ccccc1
Key:
[1] = test system: CCRF-CEM cells; experiment: In vitro cytotoxicity (MTS) in CCRF-CEM cells; format: cell-based, human; details: 25 µM, MTS, n = 3
Experimental: SK-OV-3, CCRF-CEM, HEK-293, MDA-MB-468, LLC-PK1, and MES-SA were used to determine the cytotoxicity of the synthesized linear and cyclic peptides. About 5000, 10,000, and 50,000 cells were seeded for SK-OV-3, HEK-293, and CCRF-CEM cells, respectively, in 0.1 mL of medium per well of 96-well plates. An appropriate medium was used for each cell line (SK-OV-3: McCoy’s 5A with L-glutamine containing fetal bovine serum (FBS) (10%) and penicillin or streptomycin (1%); CCRF-CEM: RPMI-1640 medium with L-glutamine and sodium bicarbonate containing FBS (10%) and penicillin or streptomycin (1%); MDA-MB-468 cells: DMEM/F12 (1:1) (1×) with L-glutamine and 15 mM HEPES containing FBS (10%) and penicillin or streptomycin (1%); LLC-PK1 cells: Dulbecco’s Modified Eagle’s Medium with 4500 mg/L glucose, L-glutamine and sodium bicarbonate, without sodium pyruvate liquid containing FBS (10%) and penicillin or streptomycin (1%); MES-SA cells: consisting of half SK-OV-3 and half CCRF-CEM media; and HEK-293 cells: Minimum Essential Medium Eagle with Earle’s salts and sodium bicarbonate, without L-glutamine containing FBS (10%) and penicillin or streptomycin (1%)). Then, 20 µL of peptides containing 5% DMSO in water were added to each well.
Adhesive cells were detached with 0.05% trypsin/EDTA after 15 min. The suspended cells were seeded in the medium 24 h prior to the experiment according to the previously reported procedure. The medium was changed before adding the peptides for adherent cells. Each concentration 5, 10, 25, 50, and 166 µM (containing 0.8% DMSO) had triplicate wells to minimize possible errors. […] The cell viability was measured by utilizing Multi-Mode Microplate Reader (SpectraMax M5 model, Molecular Devices, San Jose, CA, USA) after adding 20 µL of the MTS reagent to each well and incubating for 3 additional hours. […] The protocol manager was selected “endpoint” on the spectrophotometer’s software (SoftMax Pro 7). The 96-well plates were inserted inside spectrophotometer, and the data were acquired. The percentage of cell viability was calculated using the following equation:(1) =(Average OD values of samples treated with the compound /Average OD values of no treatment samples )∗100

[2] = test system: CCRF-CEM cells; experiment: Cellular uptake by flow cytometry in CCRF-CEM cells; format: cell-based, human; details: 3 h
Experimental: CCRF-CEM and SK-OV-3 cells were used to measure the cellular uptake of a fluorescent-labeled phosphopeptide (F’-GpYEEI) (2 µM), stavudine (F’-d4T) (2 µM) lamivudine (F’-3TC) (1–2 µM), emtricitabine (F’-FTC) (2 µM), and siRNA (F’-siRNA) (36 nM) with the least toxic concentration for each linear and the cyclic peptide (10 µM). The uptake was measured in the presence and absence of the peptides. The SK-OV-3 (0.5 million) and CCRF-CEM (a million) cells were incubated in each well of 6-well plates with the synthesized peptide and the fluorescent-labeled compound in one well. Another well contained the fluorescent-labeled compound alone for 3 h in an incubator (37 °C in a humidified atmosphere of 5% CO2). […] For more details, please refer back to the cytotoxicity method described above.
The cells were transferred to FACS analysis tubes after being washed with phosphate-buffered saline (PBS). The cells were centrifuged 2500 RPM for 5 min with Fisher Scientific accuSpin Micro 17 to precipitate the cells and to allow replacing the supernatant. The cells were then vortexed with Nerl Blood Bank Saline pH 7–7.2 (flow cytometry buffer) and transferred to the tube through a sterile cell strainer 40 µm Nylon Mesh. Finally, the cells were resuspended in flow cytometry buffer and analyzed by flow cytometry (FACSVerse model, Becton Dickinson, San Jose, CA, USA) using the FITC channel and the BD FACSuite software. The device was washed before each experiment, and the flow rate was set at medium. Finally, the cells were analyzed by using FITC channel […] argon laser for the excitation and the emitted 519 nm fluorescence for detection. The data presented was based on the FITC-A mean intensity signal for 10,000 cells collected. All assays were performed in triplicates. Results were evaluated to determine whether the peptides are facilitating the fluorescence compound to cross the membrane.
To determine the mechanism of the cellular uptake, F’-[K(DipR)5] or the physical mixture of the F’-GpYEEI and [DipR]5 were used to measure the fluorescence in the treated CCRF-CEM cells. F’-[K(DipR)5] (5 or 10 µM) or the physical mixture of the F’-GpYEEI (2 µM) and [DipR]5 (5 or 10 µM) were incubated with CCRF-CEM cells over 3 h. After each incubation, the medium containing the peptide and cells was removed. The same protocol as the cellular uptake study was used to prepare the cells as described above. Finally, the cells were resuspended in the buffer and analyzed by flow cytometry using the FITC channel and the BD FACSuite software. The data presented was based on the percentage of FITC-A mean intensity signal for 10,000 cells collected. All assays were performed in triplicates.

[3] = Plasma stability study; format: in vitro ADME; details: 500 µM in 25% human plasma in water, 37 °C
Experimental: The metabolic stability of [DipR]5 was assessed in human plasma by using a high-resolution mass spectrometer (LC-QTOF-MS). To remove the background interference, the data were processed by using a narrower (±0.1 m/z) extracted ion chromatogram (EIC) window. Test compound (500 µM) was incubated in 25% human plasma in water at 37 °C. 50 µL aliquots were taken at different time points (0, 0.5, 1, 2, 3, and 13 h), and the plasma proteins were precipitated by the addition of cold ethanol (50 µL) and incubated for 5 min in ice and water. The samples were centrifuged at 7000 RPM for 5 min, and the supernatant (10 µL) was injected into LC-QTOF-MS (Impact II model, Bruker Daltonik, Bremen, Germany). The samples were analyzed on Waters Xterra MS C18 5 µm 2.10 mm × 50 mm column at a flow rate of 0.3 mL/min using a linear gradient of aqueous ACN in the presence of formic acid (0.1%, v/v) as ion pair reagent. The analytes were quantified by their peak areas of EIC. The percentage digestion of the test compound was calculated relative to the peak areas at 0 min.

N=C(N)NCCC[C@@H]1NC(=O)[C@H](C(c2ccccc2)c2ccccc2)NC(=O)[C@H](CCCNC(=N)N)NC(=O)[C@H](C(c2ccccc2)c2ccccc2)NC(=O)[C@H](CCCNC(=N)N)NC(=O)[C@H](C(c2ccccc2)c2ccccc2)NC(=O)[C@H](CCCNC(=N)N)NC(=O)[C@H](C(c2ccccc2)c2ccccc2)NC(=O)[C@H](CCCNC(=N)N)NC(=O)[C@H](C(c2ccccc2)c2ccccc2)NC1=O [[DipR]5] (cyclo([Dip]R[Dip]R[Dip]R[Dip]R[Dip]R))
reduction of cell proliferation ([1]; 24 h incubation): 64% | reduction of cell proliferation ([1]; 72 h incubation): 84% | increase of cellular uptake of F′-3TC vs cargo alone ([2]; F’-3TC 2 µM, peptide 10 µM, flow cytometry, n = 3): 14 fold | increase of cellular uptake of F’-FTC vs cargo alone ([2]; F’-FTC 2 µM, peptide 10 µM, flow cytometry, n = 3): 13 fold | increase of cellular uptake of F’-GpYEEI ([2]; F’-GpYEEI 2 µM, peptide 5 µM, n = 3): 43 fold | cellular uptake of F’-GpYEEI relative to [R5K]W7A ([2]; side-by-side comparison, F’-GpYEEI 2 µM, peptides 10 µM): 5 fold | stability in human plasma ([3]; 0-13 h, LC-QTOF-MS): high stability | metabolised at 1 h, 500 µM ([3]; after 1 h, LC-QTOF-MS EIC peak area relative to 0 min, read-out: degradation in human plasma): ~15%

Source: PMC8997995, “Amphiphilic Cell-Penetrating Peptides Containing Natural and Unnatural Amino Acids as Drug Delivery Agents” (Cells, 2022)
